Patent US20070027150A1 (priority 2005, published 2007)

Target: His-tagged N-terminal ATP binding domain (amino acid residues 9-236) of HSP90α (Homo sapiens, UniProt P07900)
Assay: HSP90 inhibitor binding potency: TRF competition binding assay
Details: Table I; read-out: Hsp90 IC50 Range
In short: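 Competition against biotinylated radicicol for binding to the His-tagged 9-236 ATP domain of HSP90α: 2 h, room temperature, HEPES/MgCl2/KCl/BSA buffer. Streptavidin capture, then europium-labeled anti-His antibody and enhancement solution; europium counts give IC50.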

Compound	IC50
Cc1nc(N)nc2c1C(=O)CC(c1cccnc1-c1cnccn1)C2 (stereo not drawn) [Compound 34, 2-amino-4-methyl-7-(2-pyrazin-2-ylpyridin-3-yl)-7,8-dihydroquinazolin-5(6H)-one]	1000 to 10000 nM
Cc1nc(N)nc2c1C(=O)CC(C(C)C)C2 (stereo not drawn) [Compound 1, 2-amino-7-isopropyl-4-methyl-7,8-dihydroquinazolin-5(6H)-one]	> 10000 nM
Cc1nc(N)nc2c1C(=O)CC(c1c(OCCN)cccc1-c1cccnc1F)C2 (stereo not drawn) [Compound 153, 2-amino-7-[2-(2-amino-ethoxy)-6-(2-fluoro-pyridin-3-yl)-phenyl]-4-methyl-7,8-dihydro-6H-quinazolin-5-one]	< 1000 nM
Cc1nc(N)nc2c1C(=O)CC(c1ccccc1N1CCCCC1)C2 (stereo not drawn) [Compound 12, 2-amino-4-methyl-7-(2-piperidin-1-yl-phenyl)-7,8-dihydro-6H-quinazolin-5-one]	< 1000 nM
Cc1nc(N)nc2c1C(=O)CC(c1ccc(Cl)cc1Cl)C2 (stereo not drawn) [Compound 6, 2-amino-7-(2,4-dichlorophenyl)-4-methyl-7,8-dihydroquinazolin-5(6H)-one]	1000 to 10000 nM
Cc1nc(N)nc2c1C(=O)CC(c1c(OCCN3CCN(C)CC3)cccc1-c1cccnc1F)C2 (stereo not drawn) [Compound 158, 2-amino-7-{2-(2-fluoro-pyridin-3-yl)-6-[2-(4-methyl-piperazin-1-yl)-ethoxy]-phenyl}-4-methyl-7,8-dihydro-6H-quinazolin-5-one]	< 1000 nM
Cc1nc(N)nc2c1C(=O)CC(c1cccnc1Cl)C2 (stereo not drawn) [Compound 4, 2-amino-7-(2-chloropyridin-3-yl)-4-methyl-7,8-dihydroquinazolin-5(6H)-one]	> 10000 nM
COc1ccc(-c2cncnc2)c(C2CC(=O)c3c(C)nc(N)nc3C2)c1 (stereo not drawn) [Compound 75, 2-amino-7-(5-methoxy-2-pyrimidin-5-ylphenyl)-4-methyl-7,8-dihydroquinazolin-5(6H)-one]	1000 to 10000 nM

The next lines start with the values.

IC50	Compound
1000 to 10000 nM	CC(=O)Nc1ccccc1-c1ccccc1C1CC(=O)c2c(C)nc(N)nc2C1 (stereo not drawn) [Compound 103, N-[2′-(2-amino-4-methyl-5-oxo-5,6,7,8-tetrahydroquinazolin-7-yl)-1,1′-biphenyl-2-yl]acetamide]
1000 to 10000 nM	Cc1nc(N)nc2c1C(=O)CC(c1ccccc1-c1cccc(C(F)(F)F)c1)C2 (stereo not drawn) [Compound 110, 2-amino-4-methyl-7-[3′-(trifluoromethyl)-1,1′-biphenyl-2-yl]-7,8-dihydroquinazolin-5(6H)-one]
1000 to 10000 nM	Cc1nc(N)nc2c1C(=O)CC(c1ccccc1-c1cccc(CN(C)C)c1)C2 (stereo not drawn) [Compound 174, 2-amino-7-{3′-[(dimethylamino)methyl]-1,1′-biphenyl-2-yl}-4-methyl-7,8-dihydroquinazolin-5(6H)-one]
< 1000 nM	Cc1nc(N)nc2c1C(=O)CC(c1ccccc1-c1ccccc1F)C2 (stereo not drawn) [Compound 51, 2-amino-7-(2′-fluoro-1,1′-biphenyl-2-yl)-4-methyl-7,8-dihydroquinazolin-5(6H)-one]
1000 to 10000 nM	Cc1nc(N)nc2c1C(=O)CC(c1ccccc1-c1cccc(C#N)c1)C2 (stereo not drawn) [Compound 65, 2′-(2-amino-4-methyl-5-oxo-5,6,7,8-tetrahydroquinazolin-7-yl)-1,1′-biphenyl-3-carbonitrile]
> 10000 nM	Cc1nc(N)nc2c1C(=O)CC(c1cccc(-c3ccncc3)c1)C2 (stereo not drawn) [Compound 30, 2-amino-4-methyl-7-(3-pyridin-4-ylphenyl)-7,8-dihydroquinazolin-5(6H)-one]
< 1000 nM	Cc1nc(N)nc2c1C(=O)CC(c1ccccc1Oc1ccccc1)C2 (stereo not drawn) [Compound 133, 2-amino-4-methyl-7-(2-phenoxyphenyl)-7,8-dihydroquinazolin-5(6H)-one]
< 1000 nM	Cc1ccnc(-c2ccccc2C2CC(=O)c3c(C)nc(N)nc3C2)c1 (stereo not drawn) [Compound 118, 2-amino-4-methyl-7-[2-(4-methylpyridin-2-yl)phenyl]-7,8-dihydroquinazolin-5(6H)-one]
< 1000 nM	Cc1ccccc1-c1ccccc1C1CC(=O)c2c(C)nc(N)nc2C1 (stereo not drawn) [Compound 49, 2-amino-4-methyl-7-(2′-methyl-1,1′-biphenyl-2-yl)-7,8-dihydroquinazolin-5(6H)-one]
< 1000 nM	COC(=O)c1ccccc1C1CC(=O)c2c(C)nc(N)nc2C1 (stereo not drawn) [Compound 165, methyl 2-(2-amino-4-methyl-5-oxo-5,6,7,8-tetrahydroquinazolin-7-yl)benzoate]
1000 to 10000 nM	Cc1nc(N)nc2c1C(=O)CC(c1ccccc1N1CCCC1=O)C2 (stereo not drawn) [Compound 163, 2-amino-4-methyl-7-[2-(2-oxo-pyrrolidin-1-yl)-phenyl]-7,8-dihydro-6H-quinazolin-5-one]

Same assay, conditions: Table II; read-out: Hsp90 IC50 Range

Compound	IC50
CCc1nc(N)nc2c1C(=O)CC(c1ccccc1)C2 (stereo not drawn) [Compound 210, 2-amino-4-ethyl-7-phenyl-7,8-dihydro-6H-quinazolin-5-one]	> 10000 nM
Cc1nc(N)nc2c1C(=O)CC(c1nccn1C1CCCC1)C2 (stereo not drawn) [Compound 189, 2-amino-7-(1-cyclopentyl-1H-imidazol-2-yl)-4-methyl-7,8-dihydro-6H-quinazolin-5-one]	< 1000 nM
Cc1nc(N)nc2c1C(=O)CC(c1ncccc1OC1CCCC1)C2 (stereo not drawn) [Compound 178, 2-amino-7-(3-cyclopentyloxy-pyridin-2-yl)-4-methyl-7,8-dihydro-6H-quinazolin-5-one]	< 1000 nM
Cc1nc(N)nc2c1C(=O)C(NC(=O)c1ccccc1)C(c1ccccc1)C2 (stereo not drawn) [Compound 241, N-(2-amino-4-methyl-5-oxo-7-phenyl-5,6,7,8-tetrahydro-quinazolin-6-yl)-benzamide]	> 10000 nM
COc1nc(-n2ccnc2[C@@H]2CC(=O)c3c(C)nc(N)nc3C2)ncc1C [Compound 208, (S)-2-amino-7-[1-(4-methoxy-5-methyl-pyrimidin-2-yl)-1H-imidazol-2-yl]-4-methyl-7,8-dihydro-6H-quinazolin-5-one]	< 1000 nM
Cc1ccc(F)c(-c2scnc2C2CC(=O)c3c(C)nc(N)nc3C2)c1 (stereo not drawn) [Compound 293, 2-amino-7-[5-(2-fluoro-5-methyl-phenyl)-thiazol-4-yl]-4-methyl-7,8-dihydro-6H-quinazolin-5-one]	< 1000 nM
Cc1nc(N)nc2c1C(=O)CC(c1ccccc1)C2NC(=O)c1ccccc1 (stereo not drawn) [Compound 242, N-(2-amino-4-methyl-5-oxo-7-phenyl-5,6,7,8-tetrahydro-quinazolin-8-yl)-benzamide]	> 10000 nM
Cc1nc(N)nc2c1C(=O)CC(c1ncsc1-c1ccccc1F)C2 (stereo not drawn) [Compound 302, 2-amino-7-[5-(2-fluoro-phenyl)-thiazol-4-yl]-4-methyl-7,8-dihydro-6H-quinazolin-5-one]	< 1000 nM
COc1nc(-c2cc(F)ccc2[C@H]2CC(=O)c3c(C)nc(N)nc3C2)ncc1F [Compound 229, (R)-2-amino-7-[4-fluoro-2-(5-fluoro-4-methoxy-pyrimidin-2-yl)-phenyl]-4-methyl-7,8-dihydro-6H-quinazolin-5-one]	1000 to 10000 nM
CC(=O)Nc1cccc(Cc2nc(N)nc3c2C(=O)CC(c2ccccc2)C3)c1 (stereo not drawn) [Compound 310, N-[3-(2-amino-5-oxo-7-phenyl-5,6,7,8-tetrahydro-quinazolin-4-ylmethyl)-phenyl]-acetamide]	> 10000 nM
COc1ncc(-c2cc(F)ccc2C2CC(=O)c3c(C)nc(N)nc3C2)nc1OC (stereo not drawn) [Compound 322, 2-amino-7-[2-(5,6-dimethoxy-pyrazin-2-yl)-4-fluoro-phenyl]-4-methyl-7,8-dihydro-6H-quinazolin-5-one]	< 1000 nM
